Measurements reported in patent US11285227B2, “Trifunctional constructs with tunablepharmacokinetics useful in imaging and anti-tumor therapies” (CORNELL UNIVERSITY, priority 2017, dated 2022).
Where two headings read alike, the source gives them in different places. Marks after values point to notes of the source that are not given here.

Experiments:
[1] = C57BL/6 mice, tail vein, 10-50 kBq; 15 min, 1 h, 5 h
Procedure: C57BL/6 mice were injected via tail vein with 10-50 kBq of each radiometal complex and were sacrificed after 15 min, 1 h, or 5 h.

[2] = tested on: LNCaP xenograft tumor-bearing mice; experiment: Biodistribution studies of 177Lu-labeled ligands in LNCaP xenograft mice; format: in vivo; conditions: for Max. Tumor Uptake: corresponding 177Lu-labeled compound
Procedure: (§1) Inoculation of mice with xenografts: All animal studies were approved by the Institutional Animal Care and Use Committee of Weill Cornell Medicine and were undertaken in accordance with the guidelines set forth by the USPHS Policy on Humane Care and Use of Laboratory Animals. Animals were housed under standard conditions in approved facilities with 12 h light/dark cycles. Food and water was provided ad libitum throughout the course of the studies. Hairless male nu/nu mice were purchased from the Jackson Laboratory. For inoculation in mice, LNCaP cells were suspended at 4×10^7 cells/mL in a 1:1 mixture of PBS:Matrigel (BD Biosciences). Each mouse was injected in the left flank with 0.25 mL of the cell suspension. The mice were imaged when the tumors reached approximately 200-400 mm^3, while biodistributions were conducted when tumors were in the range 100-400 mm^3.
Biodistribution studies of ^177Lu-labeled ligands in LNCaP xenograft mice: LNCaP xenograft tumor-bearing mice (5 per time point per compound) were injected intravenously with a bolus injection of 348-851 kBq (9.4-23 μCi) and 37-50 ng (23-25 pmol) of each ligand. The mice were sacrificed at 4, 24 and 96 h post injection. A blood sample was removed, and a full biodistribution study was conducted on the following organs (with contents): heart, lungs, liver, small intestine, large intestine, stomach, spleen, pancreas, kidneys, muscle, bone and tumor. Tissues were weighed and counted on a 2470 Wizard^2 Automatic Gamma Counter (Perkin Elmer). Counts were corrected for decay and for activity injected, and tissue uptake was expressed as percent injected dose per gram (% ID/g). Standard error measurement was calculated for each data point.

PSMA on LNCaP cells = PSMA on LNCaP cells (Homo sapiens, UniProt Q04609); experiment: Multi-concentration competitive binding assay against 99mTc-MIP-1427 (Section 1.3); set-up: host or cells: LNCaP
Procedure: Cell Culture: The PSMA expressing human prostate cancer cell line, LNCaP, was obtained from the American Type Culture Collection. Cell culture supplies were obtained from Invitrogen unless otherwise noted. LNCaP cells were maintained in RPMI-1640 medium supplemented with 10% fetal bovine serum (Hyclone), 4 mM L-glutamine, 1 mM sodium pyruvate, 10 mM N-2-hydroxyethylpiperazine-N-2-ethanesulfonic acid (HEPES), 2.5 mg/mL D-glucose, and 50 μg/mL gentamicin in a humidified incubator at 37° C./5% CO2. Cells were removed from flasks for passage or for transfer to 12-well assay plates by incubating them with 0.25% trypsin/ethylenediaminetetraacetic acid (EDTA).
In vitro determination of IC50: IC50 values of the non-labeled, metal-free ligands were determined by screening in a multi-concentration competitive binding assay against ^99mTc-((7S,12S,16S)-1-(1-(carboxymethyl)-1H-imidazol-2-yl)-2-((1-(carboxymethyl)-1H-imidazol-2-yl)methyl)-9,14-dioxo-2,8,13,15-tetraazaoctadecane-7,12,16,18-tetracarboxylic acid technetium tricarbonyl complex) (^99mTc-MIP-1427) for binding to PSMA on LNCaP cells, according to previously described methods [18,19] with small modifications. Briefly, LNCaP cells were plated 48 h prior to the experiment to achieve a density of approximately 5×10^5 cells/well (in triplicate) in RPMI-1640 medium supplemented with 0.25% bovine serum albumin. The cells were incubated for 2 h with 1 nM ^99mTc-MIP-1427 in serum-free RPMI-1640 medium in the presence of 0.001-10,000 nM test compounds. Radioactive incubation media was then removed by pipette and the cells were washed twice using 1 mL ice-cold PBS 1× solution. Cells were harvested from the plates following treatment with 1 mL 1M NaOH and transferred to tubes for radioactive counting using a 2470 Wizard^2 Automatic Gamma Counter (Perkin Elmer). Standard solutions (10% of activity added to each well) were prepared to enable decay correction. IC50 values were determined by fitting the data points to a sigmoidal Hills1 curve in Origin software.

[3] = tested on: LNCaP xenograft tumor-bearing mice; experiment: Dosimetry (dose integrals from 177Lu biodistribution); format: in vivo
Procedure: Dosimetry: The dosimetry was calculated assuming a linear interpolation between the three time points. The average injected dose per organ was calculated by using the average of the activity and organ weights of the mice at that time point. Intermediate time points at every 4 hours were generated using the linear approximation and all time points were corrected for decay during the time interval between points. These curves were integrated using a trapezoidal approximation and the sum used to determine the residence time.

[4] = tested on: LNCaP xenograft tumor-bearing mice; experiment: µPET/CT imaging of 66Ga-RPS ligands in LNCaP xenograft mice; format: in vivo
Procedure: as §1
Imaging of ^66Ga-RPS ligands in LNCaP xenograft mice: LNCaP xenograft tumor-bearing mice (2-3 per compound) injected intravenously with a bolus injection of 0.56-5.4 MBq (15-145 μCi) of the ^66Ga-labeled ligand. The specific activity of the tracers was in the range 14.8-47 MBq/pmol (0.4-1.27 mCi/pmol). The mice were imaged using μPET/CT (Inveon™; Siemens Medical Solutions, Inc.) at 1, 3, 6 and 24 h post-injection following inhalation anesthetization with isoflurane. Total acquisition time was 30 min for the 1 h, 3 h and 6 h images, and 60 min for 24 h time point. A CT scan was obtained immediately before the acquisition for both anatomical co-registration and attenuation correction. Images were reconstructed using the Inveon™ software supplied by the vendor. Image-derived tumor and kidney uptake was estimated by comparison to a 10% injected dose per cubic mm (% ID/mm^3) standard introduced into the imaging field of view. The standard was prepared by dilution of 10% of the injected activity to 1 mL with saline. Volumes of interest (VOIs) were drawn with the aid of the CT and confirmed by PET. The contents of the VOIs were integrated and the calculated counts were converted to % ID/mm^3 by direct comparison to the aforementioned standard following correction for activity injected.

[5] = non-labeled, metal-free ligands, competitive binding in LNCaP cells vs 1 nM 99mTc-MIP-1427, 2 h, read-out: IC50

PSMA on LNCaP cells, sequence (Q04609 whole entry): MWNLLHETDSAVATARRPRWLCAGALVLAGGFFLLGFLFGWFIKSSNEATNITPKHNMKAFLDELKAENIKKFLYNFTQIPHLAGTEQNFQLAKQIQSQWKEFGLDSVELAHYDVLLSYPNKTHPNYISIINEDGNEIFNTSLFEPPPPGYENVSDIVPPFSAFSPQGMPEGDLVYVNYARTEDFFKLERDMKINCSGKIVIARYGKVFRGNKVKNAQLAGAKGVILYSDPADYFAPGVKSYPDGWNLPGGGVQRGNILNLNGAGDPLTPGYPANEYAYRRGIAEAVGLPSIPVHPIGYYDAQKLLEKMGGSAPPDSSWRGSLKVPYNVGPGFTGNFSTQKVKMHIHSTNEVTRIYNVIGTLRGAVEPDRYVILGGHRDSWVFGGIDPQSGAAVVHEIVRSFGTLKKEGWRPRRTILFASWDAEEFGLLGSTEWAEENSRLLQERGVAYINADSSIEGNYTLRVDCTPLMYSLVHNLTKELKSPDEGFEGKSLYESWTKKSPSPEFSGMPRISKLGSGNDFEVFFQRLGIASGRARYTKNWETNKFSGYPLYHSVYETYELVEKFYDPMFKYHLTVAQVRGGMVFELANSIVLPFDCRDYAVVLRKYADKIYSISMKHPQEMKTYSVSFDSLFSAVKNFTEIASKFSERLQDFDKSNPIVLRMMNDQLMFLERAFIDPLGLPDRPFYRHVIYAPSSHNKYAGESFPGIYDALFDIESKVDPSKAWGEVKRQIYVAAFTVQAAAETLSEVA

In the case of `O=C([O-])CN1CCN(CC(=O)[O-])CCN(CC(=O)[O-])CCN(CC(=O)[O-])CC1.[225Ac+3]` [[^225Ac(DOTA)]^−, reference compound], the “Biodistribution profile (clearance)” value [1] is reported as “appeared to clear more rapidly through the urine”.

For `O=C(O)CC[C@H](NC(=O)N[C@@H](CCCCNC(=O)Nc1cccc(-c2cn(CCOCCOCCOCCOCCOCCOCCC(=O)N[C@@H](CCCCNC(=S)Nc3ccc(CC4CN(CC(=O)O)CCN(CC(=O)O)CCN(CC(=O)O)CCN4CC(=O)O)cc3)C(=O)N[C@@H](CCCCNC(=O)Cc3ccc(I)cc3)C(=O)O)nn2)c1)C(=O)O)C(=O)O` (stereo partly drawn) [RPS-069, (((1S)-1-carboxy-5-(3-(3-(1-((23S,26S)-26-carboxy-33-(4-iodophenyl)-21,24,32-trioxo-23-(4-(3-(4-((1,4,7,10-tetrakis(carboxymethyl)-1,4,7,10-tetraazacyclododecan-2-yl)methyl)phenyl)thioureido)butyl)-3,6,9,12,15,18-hexaoxa-22,25,31-triazatritriacontyl)-1H-1,2,3-triazol-4-yl)phenyl)ureido)pentyl)carbamoyl)-L-glutamic acid], the “Max. Tumor Uptake” value ([2]; a = 4 h p.i.) was 17.0 % ID/g and the IC50 (PSMA on LNCaP cells; [5]) was 3.8 nM.

For `O=C([O-])c1cccc(CN2CCOCCOCCN(Cc3cccc(C(=O)[O-])n3)CCOCCOCC2)n1.[225Ac+3]` [[^225Ac(macropa)]^+], the “Biodistribution profile (clearance)” value [1] was “rapidly cleared from mice, with very little activity measured in blood by 1 h post injection” and the “Organ accumulation / in vivo stability of the complex” value [1] was “did not accumulate in any organ”.

In the case of `O=C(O)CCC(NC(=O)NC(CCCCNC(=O)Nc1cccc(-c2cnnn2CC(=O)NC(CCCCNC(=S)Nc2ccc(CC3CN(CC(=O)O)CCN(CC(=O)O)CCN(CC(=O)O)CCN3CC(=O)O)cc2)C(=O)NC(CCCCNC(=O)Cc2ccc(I)cc2)C(=O)O)c1)C(=O)O)C(=O)O` (stereo not shown) [^177Lu-RPS-068, metal not drawn], the “Tumor uptake (in words)” value ([2]; 4-96 h p.i.) is reported as “high and remained high”, the “Blood activity (in words)” value ([2]; 4 h p.i.) is reported as “highest blood activity” and the Tumor uptake ([2]; 4 h p.i.) is reported as 21.8±2.8 % ID/g. The Kidney uptake ([2]; 24 h p.i.) was 87.3±6.7 % ID/g, the Tumor uptake ([2]; 96 h p.i.) was 14.9±1.5 % ID/g and the Tumor-to-kidney ratio ([2]; 96 h p.i.) was 1.56±0.23. For the same molecule, the “Dose integral in the tumor relative to 177Lu-PSMA-617” value ([3]; over 96 h) was “nearly four times higher”.

In the case of `O=C(O)CC[C@H](NC(=O)N[C@@H](CCCCNC(=O)Nc1cccc(-c2cn(CCOCCOCCOCCC(=O)N[C@@H](CCCCNC(=S)Nc3ccc(CC4CN(CC(=O)O)CCN(CC(=O)O)CCN(CC(=O)O)CCN4CC(=O)O)cc3)C(=O)N[C@@H](CCCCNC(=O)Cc3ccc(I)cc3)C(=O)O)nn2)c1)C(=O)O)C(=O)O` (stereo partly drawn) [RPS-063, (((1S)-1-carboxy-5-(3-(3-(1-((14S,17S)-17-carboxy-24-(4-iodophenyl)-12,15,23-trioxo-14-(4-(3-(4-((1,4,7,10-tetrakis(carboxymethyl)-1,4,7,10-tetraazacyclododecan-2-yl)methyl)phenyl)thioureido)butyl)-3,6,9-trioxa-13,16,22-triazatetracosyl)-1H-1,2,3-triazol-4-yl)phenyl)ureido)pentyl)carbamoyl)-L-glutamic acid], the “Max. Tumor Uptake” value ([2]; a = 4 h p.i.) is reported as 30.0 % ID/g and the IC50 (PSMA on LNCaP cells) is reported as 1.5 ± 0.3 nM.

For `O=C(O)CCC(NC(=O)NC(CCCCNC(=O)C(Cc1ccc2ccccc2c1)NC(=O)C1CCC(CNC(=O)CN2CCN(CC(=O)O)CCN(CC(=O)O)CCN(CC(=O)O)CC2)CC1)C(=O)O)C(=O)O` (stereo not shown) [^66Ga-PSMA-617, metal not drawn, reference compound], the “Tumor uptake (image-derived)” value ([4]; 24 h post injection) was 1.1±0.4 % ID/cm^3 and the “Maximum tumor uptake (image-derived)” value ([4]; maximum at 1 h post injection) was 3.1±0.4 % ID/cm^3.

In the case of `O=C(O)CC[C@H](NC(=O)N[C@@H](CCCCNC(=O)Nc1cccc(-c2cnnn2CC(=O)N[C@@H](CCCCNC(=S)Nc2ccc(CC3CN(CC(=O)O)CCN(CC(=O)O)CCN(CC(=O)O)CCN3CC(=O)O)cc2)C(=O)N[C@@H](CCCCNC(=O)Cc2ccc(I)cc2)C(=O)O)c1)C(=O)O)C(=O)O` (stereo partly drawn) [RPS-068, (((1S)-1-carboxy-5-(3-(3-(1-(2-(((2S)-1-(((S)-1-carboxy-5-(2-(4-iodophenyl)acetamido)pentyl)amino)-1-oxo-6-(3-(4-((1,4,7,10-tetrakis(carboxymethyl)-1,4,7,10-tetraazacyclododecan-2-yl)methyl)phenyl)thioureido)hexan-2-yl)amino)-2-oxoethyl)-1H-1,2,3-triazol-5-yl)phenyl)ureido)pentyl)carbamoyl)-L-glutamic acid], the “Max. Tumor Uptake” value ([2]; b = 24 h p.i.) is reported as 26.9 ± 2.0^b % ID/g and the IC50 (PSMA on LNCaP cells; [5]) is reported as 2.1 ± 0.1 nM.

For `O=C(O)CC[C@H](NC(=O)N[C@@H](CCCCNC(=O)Nc1cccc(-c2cn(CCOCCOCCOCCOCCC(=O)N[C@@H](CCCCNC(=S)Nc3ccc(CC4CN(CC(=O)O)CCN(CC(=O)O)CCN(CC(=O)O)CCN4CC(=O)O)cc3)C(=O)N[C@@H](CCCCNC(=O)Cc3ccc(I)cc3)C(=O)O)nn2)c1)C(=O)O)C(=O)O` (stereo partly drawn) [RPS-061, (((1S)-1-carboxy-5-(3-(3-(1-((17S,20S)-20-carboxy-27-(4-iodophenyl)-15,18,26-trioxo-17-(4-(3-(4-((1,4,7,10-tetrakis(carboxymethyl)-1,4,7,10-tetraazacyclododecan-2-yl)methyl)phenyl)thioureido)butyl)-3,6,9,12-tetraoxa-16,19,25-triazaheptacosyl)-1H-1,2,3-triazol-4-yl)phenyl)ureido)pentyl)carbamoyl)-L-glutamic acid], the “Max. Tumor Uptake” value ([2]; a = 4 h p.i.) was 20.4 % ID/g and the IC50 (PSMA on LNCaP cells; [5]) was 4.1 nM.

For `O=C(O)CCC(NC(=O)NC(CCCCNC(=O)C(Cc1ccc2ccccc2c1)NC(=O)C1CCC(CNC(=O)CN2CCN(CC(=O)O)CCN(CC(=O)O)CCN(CC(=O)O)CC2)CC1)C(=O)O)C(=O)O` (stereo not shown) [PSMA-617, reference compound], the “Max. Tumor Uptake” value ([2]; a = 4 h p.i.) was 14.4 ± 2.5 % ID/g and the IC50 (PSMA on LNCaP cells; [5]) was 6.6 ± 0.7 nM.

`O=C(O)CCC(NC(=O)NC(CCCCNC(=O)C(Cc1ccc2ccccc2c1)NC(=O)C1CCC(CNC(=O)CN2CCN(CC(=O)O)CCN(CC(=O)O)CCN(CC(=O)O)CC2)CC1)C(=O)O)C(=O)O` (stereo not shown) [^177Lu-PSMA-617, metal not drawn, reference compound] showed a Kidney uptake ([2]; 4 h p.i.) of 14.1±3.1 % ID/g, a Tumor uptake ([2]; 4 h p.i.) of 14.4±1.1 % ID/g and a Tumor uptake ([2]; 96 h p.i.) of 3.5±0.3 % ID/g. For the same molecule, the Tumor-to-kidney ratio ([2]; 96 h p.i.) was 14.39±2.2 and the “Ratio of tumor dose integral to kidney dose integral” value ([3]; over the 96 h) was 1.95.

With `O=C(O)CCC(NC(=O)NC(CCCCNC(=O)Nc1cccc(-c2cnnn2CC(=O)NC(CCCCNC(=S)Nc2ccc(CC3CN(CC(=O)O)CCN(CC(=O)O)CCN(CC(=O)O)CCN3CC(=O)O)cc2)C(=O)NC(CCCCNC(=O)Cc2ccc(I)cc2)C(=O)O)c1)C(=O)O)C(=O)O` (stereo not shown) [^66Ga-RPS-068, metal not drawn] the “Kidney uptake (image-derived)” value ([4]; 24 h post injection) was 1.9±0.3 % ID/cm^3 and the “Maximum tumor uptake (image-derived)” value ([4]; maximum at 3 h post injection) was 9.7±2.0 % ID/cm^3.

In the case of `O=C(O)CC[C@H](NC(=O)N[C@@H](CCCCNC(=O)Nc1cccc(-c2cn(CCOCCOCCOCCOCCOCCOCCOCCOCCC(=O)N[C@@H](CCCCNC(=S)Nc3ccc(CC4CN(CC(=O)O)CCN(CC(=O)O)CCN(CC(=O)O)CCN4CC(=O)O)cc3)C(=O)N[C@@H](CCCCNC(=O)Cc3ccc(I)cc3)C(=O)O)nn2)c1)C(=O)O)C(=O)O` (stereo partly drawn) [RPS-066, (((1S)-1-carboxy-5-(3-(3-(1-((29S,32S)-32-carboxy-39-(4-iodophenyl)-27,30,38-trioxo-29-(4-(3-(4-((1,4,7,10-tetrakis(carboxymethyl)-1,4,7,10-tetraazacyclododecan-2-yl)methyl)phenyl)thioureido)butyl)-3,6,9,12,15,18,21,24-octaoxa-28,31,37-triazanonatriacontyl)-1H-1,2,3-triazol-4-yl)phenyl)ureido)pentyl)carbamoyl)-L-glutamic acid], the “Max. Tumor Uptake” value ([2]; a = 4 h p.i.) is reported as 18.7 % ID/g and the IC50 (PSMA on LNCaP cells; [5]) is reported as 5.2 nM.
